Experimental data as given in patent US10968183B2, “Small molecule FIEL1 inhibitor in inflammatory and fibrotic lung injury” (UNIVERSITY OF PITTSBURGH—OF THE COMMONWEALTH SYSTEM OF …, priority 2015, dated 2021).
Entries after “also recorded” stand apart in the source; their conditions may differ.

Experiments:
[1] = test system: bleomycin-induced lung injury in C57BL/6J mice; assay: Bleomycin lung fibrosis model in mice; type: in vivo; details: estimated 5 mg/kg/d; for lung (pulmonary) fibrosis: 7-21 days
Experimental: FIG. 7A. […] FIG. 7B. Structures of the BC-1480 backbone and lead compound BC-1485. FIG. 7C. FIEL1 protein was HIS-purified from FIEL1 expression in 293T cells using cobalt beads. Beads were then extensively washed prior to exposure to BC-1480 or BC-1485 at different concentrations (10^−4 to 100 μM). Purified PIAS4 protein was then incubated with drug-bound FIEL1 beads overnight. Beads were washed, and proteins were eluted and resolved on SDS-PAGE. The relative amounts of PIAS4 detected in the pull-downs was normalized to loading and quantified (n=2). FIG. 7D. MLE cells were exposed to BC-1480 or BC-1485 at various concentrations for 18 h. Cells were then collected and immunoblotted. FIGS. 7E-J. C57BL/6J mice were administered with bleomycin (0.05 U) for 7-21 days. Compounds BC-1480 and BC-1485 were given to mice through drinking water with an estimated dose of 5 mg/kg/d. Mice were euthanized, and lungs were lavaged with saline, harvested, and then homogenized. Lavage proteins, CXCL1, and total cell count were measured in FIGS. 7E-G. H. Survival studies of mice that were given bleomycin and compound treatments. Mice were carefully monitored over time; moribund, preterminal animals were immediately euthanized and recorded as deceased. Kaplan-Meier survival curves were generated using SPSS software (p<0.01 compared to Vehicle). Vehicle: n=24, BC-1480: n=13, BC-1485: n=12. FIG. 7I. Hydroxyproline contents were measured in lungs from 7, 14, and 21d after bleomycin challenge. FIG. 7J. Trichrome staining was performed on lung samples from E. Original magnification, ×10. *p<0.05 compared to Vehicle (t-test). Data are an average of two experiments (FIGS. 7E-J, 4-8 mice/group)
C57BL/6J mice were administered i.t. with bleomycin (0.05 U) for 7-21 days. Compounds BC-1480 and BC-1485 were given to mice through drinking water with an estimated dose of 5 mg/kg/d. Mice were then euthanized, and lungs were lavaged with saline, harvested, and then homogenized. Lavage IL-6 was measured in (FIG. 16A). Lavage cells were also processed for Wright-Giemsa stain; Lavage macrophages, neutrophils and lymphocytes were counted and graphed (FIGS. 16B-16D). H&E staining was performed on lung samples from A. Original magnification, ×10. *p<0.05 compared to Vehicle (t test). Data are an average of two experiments (A-E, 4-8 mice/group).
Murine lungs were dried and weighed prior to digestion with HCl. Hydroxyproline concentrations were measuring using methods previously described in Kesava Reddy et al., Clinical Biochemistry, 29(3): 225-229 (1996), and Neuman et al., J. of Biol. Chem., 184(1): 299-306 (1950). Hydroxyproline content was normalized to dry lung weight.
All procedures were approved by the University of Pittsburgh Institutional Animal Care and Use Committee. For fibrosis studies, male C57BL/6J mice were deeply anesthetized using a ketamine/xylazine mixture, and the larynx was well visualized under a fiber optic light source before endotracheal intubation with a 3/400 24-gauge plastic catheter. 10^7 CFU of lentivirus encoding genes for Empty (E), FIEL1, CON shRNA, or KIAA0317 shRNA was given i.t. for 144 h before administration of bleomycin (0.02 U˜0.05 U i.t.) for up to 21 days. Animals were euthanized and assayed for BAL protein, cell count, cytokines, and lung infiltrates. Survival studies were performed on mice that were given bleomycin (0.02 U˜0.05 U i.t.). Mice were carefully monitored over time; moribund, preterminal animals were immediately euthanized and recorded as deceased. For drug studies, mice were deeply anesthetized as above. Bleomycin (0.05 U i.t.) was given i.t. before BC-1480 or BC-1485 (5 mg/kg/d) was administered to the mice through their drinking water. 7-21d later, animals were euthanized and analyzed as above.

JAK/STAT pathway = assay: JAK/STAT protein immunoblotting in HCT8 cells exposed to DSS or IFNγ; type: cell-based
Experimental: HCT8 cells were pretreated with BC-1485 at different concentrations for 16 h before exposed to DSS (2%, 16 h) or IFNγ (10 ng/ml, 1 h). Cells were collected and assayed for protein immunoblotting.

[2] = test system: DSS induced acute colonic inflammation in C57BL6 mice; assay: Dextran sulfate sodium induced acute colonic inflammation in mice; type: in vivo; details: 2.5% DSS in water up to 7 days; drinking water 30 ug/ml, ~5 mg/kg/d
Experimental: C57BL6 mice were fed with water ad lib containing 2.5% dextran sulfate sodium (DSS) for up to 7 days. Mice were treated with either vehicle (control) or BC-1261 (administered into drinking water at 30 ug/ml, ˜5 mg/kg/d dosing). Colonic tissues were also analysed for TNFα, IL1 and IL6 shown in FIGS. 20E H&E staining was performed on colonic sections. The data in FIG. 20F represent n=6 mice/group, *P<0.05 versus DSS and **P<0.05 versus control. […] FIG. 20G provides pictures of the tissues at interest.
C57BL6 mice were fed with water ad lib containing 2.5% dextran sulfate sodium (DSS) for up to 7 days. Mice were treated with either vehicle (control) or BC-1261 (administered into drinking water at 30 ug/ml, ˜5 mg/kg/d dosing). Mice were then euthanized, the length of the colon and weight of the spleen were measured and graphed, shown in FIG. 20 B-D. Colonic tissues were also analysed for TNFα, IL1 and IL6 shown in FIG. 20E H&E staining was performed on colonic sections. The data in FIG. 20F represent n=6 mice/group, *P<0.05 versus DSS and **P<0.05 versus control.

[3] = bleomycin 0.05 U i.t., up to 21 days, drinking water
[4] = 16 h pretreatment, then DSS 2% 16 h or IFNγ 10 ng/ml 1 h

CC(NC(=O)c1ccc(NS(=O)(=O)c2ccc3[nH]c(=O)[nH]c3c2)cc1)C(=O)N(C)C (stereo not shown) [BC-1485]
lung hydroxyproline content ([1]; 7, 14 and 21 d after bleomycin): significant decrease
lung (pulmonary) fibrosis ([1]; bleomycin 0.05 U i.t.): marked decrease
lung (pulmonary) fibrosis ([1]; bleomycin 0.05 U i.t., listed as BC 1485): inhibition of pulmonary fibrosis
BAL CXCL1 levels [1, 3]: significantly decreased
BAL IL-6 levels [1, 3]: significantly decreased
BAL protein concentrations [1, 3]: significantly decreased
BAL total cell counts [1, 3]: significantly decreased
survival ([1]; bleomycin 0.05 U i.t., drinking water): significantly improved
lung collagen (Mason Trichrome staining) ([1]; bleomycin 0.05 U i.t.): Decreased
peribronchiolar and parenchymal fibrosis (H&E) ([1]; bleomycin 0.05 U i.t.): substantially decreased
JAK/STAT pathway signaling (JAK/STAT pathway): inhibits the signaling transduction; also recorded: inhibits JAK/STAT pathway
JAK1 protein level (JAK/STAT pathway; [4]): effectively decreases
JAK2 protein level (JAK/STAT pathway; [4]): effectively decreases
p-Stat1 protein level (JAK/STAT pathway; [4]): effectively decreases
p-Stat3 protein level (JAK/STAT pathway; [4]): effectively decreases
DSS induced acute colonic inflammation [2]: effectively reduces
